# Results published in patent publication US10343992B2, “1-cyano-pyrrolidine compounds as USP30 inhibitors” (MISSION THERAPEUTICS LIMITED, priority 2015, dated 2019).
# pIC50: −log10 of the molar value.
# Target: USP30 (Homo sapiens (Human), UniProt Q70CQ3)
# Experiment: USP30 biochemical FP or FI IC50 assay
# Conditions: read-out: IC50 range
# Procedure: USP30 Biochemical IC50 Assay
# Dilution plates were prepared at 21 times the final concentration (2100 μM for a final concentration of 100 μM) in 50% DMSO in a 96-well polypropylene V-bottom plate (Greiner #651201). A typical 8-point dilution series would be 100, 30, 10, 3, 1, 0.3, 0.1, 0.03 μM final. Reactions were performed in duplicate in black 384 well plates (small volume, Greiner 784076) in a final reaction volume of 21 μl. Either 1 μl of 50% DMSO or diluted compound was added to the plate. USP30 was diluted in reaction buffer (40 mM Tris, pH 7.5, 0.005% Tween 20, 0.5 mg/ml BSA, 5 mM—beta-mercaptoethanol) to the equivalent of 0.05 μl/well and 10 μl of diluted USP30 was added to the compound. Enzyme and compound were incubated for 30 min at room temp. Reactions were initiated by the addition of 50 nM of TAMRA labelled peptide linked to ubiquitin via an iso-peptide bond as fluorescence polarisation substrate. Reactions were read immediately after addition of substrate and following a 2 hr incubation at room temperature. Readings were performed on a Pherastar Plus (BMG Labtech). λ Excitation 540 nm; λ Emission 590 nm.
# USP30 Biochemical Fluorescence Intensity IC50 Assay
# Dilution plates were prepared at 21 times the final concentration (2100 μM for a final concentration of 100 μM) in 50% DMSO in a 96-well polypropylene V-bottom plate (Greiner #651201). A typical 8-point dilution series would be 100, 30, 10, 3, 1, 0.3, 0.1, 0.03 μM final. Reactions were performed in duplicate in black 384 well plates (small volume, Greiner 784076) in a final reaction volume of 21 μl.
# Either 1 μl of 50% DMSO or diluted compound was added to the plate. USP30 was diluted in reaction buffer (40 mM Tris, pH 7.5, 0.005% Tween 20, 0.5 mg/ml BSA, 5 mM—beta-mercaptoethanol) to the equivalent of 0.001 μl/well and 10 μl of diluted USP30 was added to the compound. Enzyme and compound were incubated for 30 min at room temp. Reactions were initiated by the addition of Ubiquitin-Rhodamine 110 (U-555; Boston Biochem) at a final concentration of 100 nM. Reactions were read immediately after addition of substrate and following a 2 h incubation at room temperature. Readings were performed on a Pherastar Plus (BMG Labtech). λ Excitation 487 nm; λ Emission 535 nm.
# Chain of USP30 (Q70CQ3 57-517): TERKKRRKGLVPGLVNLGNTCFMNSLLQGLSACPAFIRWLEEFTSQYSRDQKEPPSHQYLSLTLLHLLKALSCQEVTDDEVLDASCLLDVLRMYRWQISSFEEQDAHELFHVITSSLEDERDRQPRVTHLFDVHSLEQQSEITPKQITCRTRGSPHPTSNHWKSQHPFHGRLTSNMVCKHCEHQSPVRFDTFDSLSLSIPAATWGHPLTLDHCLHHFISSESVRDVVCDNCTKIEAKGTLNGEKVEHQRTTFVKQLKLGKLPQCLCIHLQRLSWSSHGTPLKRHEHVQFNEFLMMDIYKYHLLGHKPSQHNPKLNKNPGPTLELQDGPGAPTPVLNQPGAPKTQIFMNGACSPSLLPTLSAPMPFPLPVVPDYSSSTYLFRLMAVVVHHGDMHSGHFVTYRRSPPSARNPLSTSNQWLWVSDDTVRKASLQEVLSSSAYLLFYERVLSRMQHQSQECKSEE
row,Compound,pIC50
1,"Cn1cc(-c2ccc(NC(=O)N3CC[C@@H]4CN(C#N)C[C@@H]43)c(F)c2)cn1 [Example 245, (3aR,6aR)-5-cyano-N-(2-fluoro-4-(1-methyl-1H-pyrazol-4-yl)phenyl)hexahydropyrrolo[3,4-b]pyrrole-1(2H)-carboxamide]",6.00 to 7.00
2,"Cc1nn(C)cc1-c1cnc(C(=O)N[C@@H]2CCN(C#N)C2)c(F)c1 [Example 122, (R)-N-(1-cyanopyrrolidin-3-yl)-5-(1,3-dimethyl-1H-pyrazol-4-yl)-3-fluoropicolinamide]",6.00 to 7.00
3,"COc1cc(C(=O)N[C@@H]2CCN(C#N)C2)ccc1Nc1nccc(C)n1 [Example 148, (R)-N-(1-cyanopyrrolidin-3-yl)-3-methoxy-4-((4-methylpyrimidin-2-yl)amino)benzamide]",6.00 to 7.00
4,"N#CN1C[C@H]2CCN(C(=O)c3ccc(N4CCOCC4)c(Cl)c3)[C@H]2C1 [Example 268, (3aR,6aR)-1-(3-chloro-4-morpholinobenzoyl)hexahydro-pyrrolo[3,4-b]pyrrole-5(1H)-carbonitrile]",6.00 to 7.00
5,"CN(C(=O)Nc1ccc(-c2cnn(C)c2)cc1)[C@@H]1CCN(C#N)C1 [Example 194, (R)-1-(1-cyanopyrrolidin-3-yl)-1-methyl-3-(4-(1-methyl-1H-pyrazol-4-yl)phenyl)urea]",6.00 to 7.00
6,"N#CN1CC[C@@H](N2CCN(c3cccc(N4CCOCC4)c3)C2=O)C1 [Example 210, (R)-3-(3-(3-morpholinophenyl)-2-oxoimidazolidin-1-yl)pyrrolidine-1-carbonitrile]",6.00 to 7.00
7,"Cc1cc(C(=O)N[C@@H]2CCN(C#N)C2)nn1Cc1ccccn1 [Example 151, (R)-N-(1-cyanopyrrolidin-3-yl)-5-methyl-1-(pyridin-2-ylmethyl)-1H-pyrazole-3-carboxamide]",6.00 to 7.00
8,"N#CN1CCC(NC(=O)C2CC(=O)N(Cc3ccc(F)cc3F)C2)C1 (racemic) [Example 10, N-(1-cyanopyrrolidin-3-yl)-1-(2,4-difluorobenzyl)-5-oxopyrrolidine-3-carboxamide]",6.00 to 7.00
9,"Cn1cc(-c2cc(C(=O)N[C@@H]3CCN(C#N)C3)ccc2F)cn1 [Example 43, (R)-N-(1-cyanopyrrolidin-3-yl)-4-fluoro-3-(1-methyl-1H-pyrazol-4-yl)benzamide]",6.00 to 7.00
10,"N#CN1CC[C@@H](NC(=O)c2ccc(-c3ccccc3)cn2)C1 [Example 1, (R)—N-(1-cyanopyrrolidin-3-yl)-5-phenylpicolinamide]",6.00 to 7.00
11,"N#Cc1ccc(-c2ccc3nc(C(=O)N[C@@H]4CCN(C#N)C4)cn3c2)cc1 [Example 117, (R)-6-(4-cyanophenyl)-N-(1-cyanopyrrolidin-3-yl)imidazo[1,2-a]pyridine-2-carboxamide]",6.00 to 7.00
12,"CN(C(=O)N1CCOC(c2ccccc2)C1)[C@@H]1CCN(C#N)C1 (stereo partly drawn) [Example 264, N-((R)-1-cyanopyrrolidin-3-yl)-N-methyl-2-phenylmorpholine-4-carboxamide]",6.00 to 7.00
13,"N#CN1CC[C@@H](NC(=O)c2ccnc(N3Cc4ccccc4C3)c2)C1 [Example 73, (R)—N-(1-cyanopyrrolidin-3-yl)-2-(isoindolin-2-yl)isonicotinamide]",6.00 to 7.00
14,"N#CN1CC[C@@H](NC(=O)c2cc(N3Cc4ccccc4C3)ncc2F)C1 [Example 141, (R)-N-(1-cyanopyrrolidin-3-yl)-5-fluoro-2-(isoindolin-2-yl)isonicotinamide]",6.00 to 7.00
15,"N#CN1CC[C@@H](NC(=O)c2ccc(-c3ccccn3)cn2)C1 [Example 216, (R)-N-(1-cyanopyrrolidin-3-yl)-[2, 3′-bipyridine]-6′-carboxamide]",6.00 to 7.00
16,"Cn1cc(-c2ccc3cc(C(=O)N[C@@H]4CCN(C#N)C4)[nH]c3c2)cn1 [Example 84, (R)-N-(1-cyanopyrrolidin-3-yl)-6-(1-methyl-1H-pyrazol-4-yl)-1H-indole-2-carboxamide]",6.00 to 7.00
17,"N#CN1CC[C@@H](NC(=O)N2CC(c3nc4ccccc4[nH]3)C2)C1 [Example 134, (R)-3-(1H-benzo[d]imidazol-2-yl)-N-(1-cyanopyrrolidin-3-yl)azetidine-1-carboxamide]",6.00 to 7.00

# Continued, values first:
row,pIC50,Compound
1,6.00 to 7.00,"N#CN1CCC(NC(=O)c2nc(-c3ccccc3)cs2)C1 (racemic) [Example 7, N-(1-cyanopyrrolidin-3-yl)-4-phenylthiazole-2-carboxamide]"
2,6.00 to 7.00,"CN(C(=O)Nc1ccc(Cl)cc1Cl)C1CCN(C#N)C1 (stereo not drawn) [Example 260, 1-(1-cyanopyrrolidin-3-yl)-3-(2,4-dichlorophenyl)-1-methylurea]"
3,6.00 to 7.00,"CCN(C(=O)c1ccc(-c2cnn(C)c2)c(F)c1)[C@@H]1CCN(C#N)C1 [Example 206, (R)-N-(1-cyanopyrrolidin-3-yl)-N-ethyl-3-fluoro-4-(1-methyl-1H-pyrazol-4-yl)benzamide]"
4,> 7.00,"Cc1nccc(-c2ccc(C(=O)N[C@@H]3CCN(C#N)C3)c(F)c2)n1 [Example 105, (R)-N-(1-cyanopyrrolidin-3-yl)-2-fluoro-4-(2-methylpyrimidin-4-yl)benzamide]"
5,> 7.00,"Cc1cc(-c2cccc(NC(=O)N3CC[C@@H]4CN(C#N)C[C@@H]43)c2)ccn1 [Example 241, (3aR,6aR)-5-cyano-N-(3-(2-methylpyridin-4-yl)phenyl)hexahydropyrrolo[3,4-b]pyrrole-1(2H)-carboxamide]"
6,> 7.00,"N#CN1CC[C@@H](NC(=O)N2CC(OCc3ccccc3)(c3ccccc3)C2)C1 [Example 238, (R)-3-(benzyloxy)-N-(1-cyanopyrrolidin-3-yl)-3-phenylazetidine-1-carboxamide]"
7,> 7.00,"N#CN1CC[C@@H](NC(=O)N2CC(c3ccn(-c4ccccc4)n3)C2)C1 [Example 234, (R)-N-(1-cyanopyrrolidin-3-yl)-3-(1-phenyl-1H-pyrazol-3-yl)azetidine-1-carboxamide]"
8,> 7.00,"N#CN1CC[C@@H](NC(=O)c2ccc(-c3ccnc(N4CCOCC4)c3)cc2F)C1 [Example 119, (R)-N-(1-cyanopyrrolidin-3-yl)-2-fluoro-4-(2-morpholinopyridin-4-yl)benzamide]"
9,6.00 to 7.00,"COc1cc(-c2cnn(C)c2)ccc1C(=O)N[C@@H]1CCN(C#N)C1 [Example 110, (R)-N-(1-cyanopyrrolidin-3-yl)-2-methoxy-4-(1-methyl-1H-pyrazol-4-yl)benzamide]"
10,6.00 to 7.00,"CC(C)C(=O)N(C)c1cccc(C(=O)N[C@@H]2CCN(C#N)C2)c1 [Example 62, (R)—N-(1-cyanopyrrolidin-3-yl)-3-(N-methylisobutyramido)benzamide]"
11,6.00 to 7.00,"N#CN1CC[C@@H](NC(=O)c2cc(-c3ccccc3)ccn2)C1 [Example 30, (R)-N-(1-cyanopyrrolidin-3-yl)-4-phenylpicolinamide]"
12,> 7.00,"Cn1cc(-c2ccc(C(=O)N[C@@H]3CCN(C#N)C3)cc2)cn1 [Example 44, (R)-N-(1-cyanopyrrolidin-3-yl)-4-(1-methyl-1H-pyrazol-4-yl)benzamide]"
13,6.00 to 7.00,"Cc1nn(C)cc1-c1ccc2nc(C(=O)N[C@@H]3CCN(C#N)C3)c(F)n2c1 [Example 170, (R)-N-(1-cyanopyrrolidin-3-yl)-6-(1,3-dimethyl-1H-pyrazol-4-yl)-3-fluoroimidazo[1,2-a]pyridine-2-carboxamide]"
14,6.00 to 7.00,"CN(C(=O)c1cc2cc(-c3cnn(C)c3)ncc2[nH]1)[C@@H]1CCN(C#N)C1 [Example 263, (R)-N-(1-cyanopyrrolidin-3-yl)-N-methyl-5-(1-methyl-1H-pyrazol-4-yl)-1H-pyrrolo[2,3-c]pyridine-2-carboxamide]"
15,> 7.00,"Cc1nn(C)cc1-c1ccc2cc(C(=O)N[C@@H]3CCN(C#N)C3)[nH]c2c1 [Example 129, (R)-N-(1-cyanopyrrolidin-3-yl)-6-(1,3-dimethyl-1H-pyrazol-4-yl)-1H-indole-2-carboxamide]"
16,> 7.00,"N#CN1C[C@H]2CCN(C(=O)Nc3ccc(C(F)(F)F)cc3)[C@H]2C1 [Example 203, (3aR,6aR)-5-cyano-N-(4-(trifluoromethyl)-phenyl)-hexahydropyrrolo[3,4-b]pyrrole-1(2H)-carboxamide]"
17,> 7.00,"N#CN1CC[C@@H](NC(=O)N2CC(c3cccc(Cl)c3)C2)C1 [Example 192, (R)-3-(3-chlorophenyl)-N-(1-cyanopyrrolidin-3-yl)azetidine-1-carboxamide]"
18,> 7.00,"(R)-N-(1-cyanopyrroldidin-3-yl)-6-(3,5-dimethylisoxazol-4-yl)-N-methyl-1H-indole-2-carboxamide [Example 262]"
19,> 7.00,"N#CN1CC[C@@H](NC(=O)c2ccc(-c3ccccc3)cc2)C1 [Example 35, (R)-N-(1-cyanopyrrolidin-3-yl)-[1,1′-biphenyl]-4-carboxamide]"
